The nature of series [1]: PAMPA (parallel artificial membrane permeability assay). Format: in vitro ADME. The settings on record: PAMPA; membrane permeation rate (Pe); 50 mM MOPSO buffer pH 6.5 with 5.0% glycocholic acid, 37° C., 18 hours; read-out: iPAMPA Pe. A digest of the protocol: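 Artificial membrane was 10% (w/v) egg lecithin plus 0.5% (w/v) cholesterol in dodecane on a PVDF filter. A 10 mM DMSO stock was added at 0.5% (v/v) to donor buffer (50 mM MOPSO, pH 6.5, 5.0% glycocholic acid). After 18 h at 37 °C, LC/MS or LC/UV gave donor and acceptor levels for Pe.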
A general note: The PAMPA barrier holds no transporters, so it reflects passive diffusion.

Series [2] is described as follows: Metabolic stability in human hepatic microsome. The format is in vitro ADME. Particulars: microsomes, pH 7.4; human hepatic microsome, NADPH(+); read-out: CL NADPH(+).

Among the data in US9409952B2, “Peptide-compound cyclization method” (Chugai Seiyaku Kabushiki Kaisha, priority 2011, dated 2016) are Papp and microsomal CLint values, retold here.

Starred links: 1 amine or outer side, 2 acyl side, 3 side chain; linkers in the order of their positions; H or OH if unused. Positions of bridges follow the written chain, without caps; N, C: chain ends. Non-standard residues stand in square brackets, D forms with d. Residues, ends and D or L forms follow the SMILES beside them. *: point of attachment. NMeF = CN[C@@H](Cc1ccccc1)C(=O)O; NMeβAla = CN(CCC(=O)[*:2])[*:1]; NMeL = CN[C@@H](CC(C)C)C(=O)O; NMeV = CN[C@H](C(=O)O)C(C)C; NMeA = CN[C@@H](C)C(=O)O; Piperidide = C1CCN(*)CC1; dNMeA = CN[C@H](C)C(=O)O; Sar = CNCC(=O)O; tBu = CC(C)(C)*

Consider `CC[C@H](C)[C@@H]1NC(=O)[C@H](CC(C)C)NC(=O)[C@H](CC(C)C)N(C)C(=O)[C@H](CC(C)C)NC(=O)[C@H](CC(C)C)NC(=O)[C@H](Cc2ccccc2)NC(=O)[C@H](CC(C)C)NC(=O)[C@H](Cc2ccccc2)NC(=O)[C@H]([C@@H](C)O)NC(=O)CCN(C)C(=O)C[C@@H](C(=O)N2CCCCC2)NC1=O` [DP-323] ([NMeβAla]TFLFLL[NMeL]LID-Piperidide; lactam N-11), for which the Papp at 18 hours, 50 µM in series [1] was found to be 7.8 ×10⁻⁶ cm/s. In series [2], the microsomal CLint at 1 uM was found to be 182 µL/min/mg.

Take `CC(C)C[C@@H]1NC(=O)CCN(C)C(=O)C[C@@H](C(=O)N2CCCCC2)NC(=O)[C@H](CC(C)C)N(C)C(=O)[C@H](CC(C)C)NC(=O)[C@H](Cc2ccccc2)NC(=O)[C@H](C)NC(=O)[C@H]([C@@H](C)O)NC(=O)[C@H](CC(C)C)NC(=O)CN(C)C(=O)[C@H](CC(C)C)NC1=O` [DP-324] ([NMeβAla]LL[Sar]LTAFL[NMeL]D-Piperidide; lactam N-11): the Papp at 18 hours, 50 µM in series [1] is 7.7 ×10⁻⁶ cm/s. Besides, in series [2], the microsomal CLint at 1 uM came out at 59 µL/min/mg.

`CC(C)C[C@H]1C(=O)N(C)[C@@H](C)C(=O)N[C@@H](C)C(=O)N[C@H](C(=O)N2CCCCC2)CC(=O)N(C)CCC(=O)N(C)[C@@H](Cc2ccccc2)C(=O)N(C)[C@@H](C)C(=O)N[C@@H]([C@@H](C)O)C(=O)N(C)[C@@H](C)C(=O)N[C@@H](Cc2ccccc2)C(=O)N(C)[C@@H](C(C)C)C(=O)N1C` [DP-326] ([NMeβAla][NMeF][NMeA]T[NMeA]F[NMeV][NMeL][NMeA]AD-Piperidide; lactam N-11): the Papp at 18 hours, 50 µM in series [1] is 2.5 ×10⁻⁶ cm/s. Also, the microsomal CLint at 1 uM in series [2] is 15 µL/min/mg.

Consider `CC[C@H](C)[C@@H]1NC(=O)[C@@H](C)N(C)C(=O)C[C@@H](C(=O)N2CCCCC2)NC(=O)[C@H](Cc2ccccc2)NC(=O)[C@H]([C@@H](C)O)NC(=O)[C@H](CC(C)C)NC(=O)[C@H](CC(C)C)NC(=O)CN(C)C(=O)[C@H](CC(C)C)NC(=O)[C@H](C)NC(=O)[C@H](CC(C)C)NC1=O` [DP-327] ([dNMeA]ILAL[Sar]LLTFD-Piperidide; lactam N-11), for which the Papp at 18 hours, 50 µM in series [1] was 3.5 ×10⁻⁶ cm/s. Also, the microsomal CLint at 1 uM in series [2] was 70 µL/min/mg.

`CC[C@H](C)[C@@H]1NC(=O)[C@H]([C@@H](C)O)NC(=O)[C@H](CC(C)C)NC(=O)[C@H](Cc2ccccc2)NC(=O)[C@H](CC(C)C)NC(=O)[C@H](C)NC(=O)C[C@@H](C(=O)N2CCCCC2)NC(=O)[C@H](Cc2ccccc2)NC(=O)[C@H](CC(C)C)NC(=O)[C@H](Cc2ccccc2)N(C)C1=O` [DP-329] (ALFLTI[NMeF]LFD-Piperidide; lactam N-10): the Papp at 18 hours, 50 µM in series [1] came to 2.4 ×10⁻⁶ cm/s. Also, the microsomal CLint at 1 uM in series [2] came out at 66 µL/min/mg.

For the compound `CC[C@H](C)[C@@H]1NC(=O)[C@H](CC(C)C)NC(=O)[C@H](Cc2ccccc2)NC(=O)[C@H](CC(C)C)NC(=O)CN(C)C(=O)[C@H](Cc2ccccc2)NC(=O)[C@H](C)NC(=O)C[C@@H](C(=O)N2CCCCC2)NC(=O)[C@H](Cc2ccccc2)NC(=O)[C@H]([C@@H](C)O)NC1=O` [DP-330] (AF[Sar]LFLITFD-Piperidide; lactam N-10), the Papp at 18 hours, 50 µM in series [1] was found to be 9.9 ×10⁻⁶ cm/s. Also, in series [2], the microsomal CLint at 1 uM was 61 µL/min/mg.

As to `CC[C@H](C)[C@@H]1NC(=O)[C@H](CC(C)C)NC(=O)[C@H](C)N(C)C(=O)C[C@@H](C(=O)N2CCCCC2)NC(=O)[C@H](CC(C)C)NC(=O)[C@H](Cc2ccccc2)NC(=O)[C@H](Cc2ccccc2)N(C)C(=O)[C@H](CC(C)C)NC(=O)[C@H]([C@@H](C)O)NC(=O)[C@H](Cc2ccccc2)NC1=O` [DP-331] ([NMeA]LIFTL[NMeF]FLD-Piperidide; lactam N-10), the Papp at 18 hours, 50 µM in series [1] was found to be 0.24 ×10⁻⁶ cm/s. Further, the microsomal CLint at 1 uM in series [2] is 198 µL/min/mg.

As for `CC[C@H](C)[C@@H]1NC(=O)[C@H](Cc2ccccc2)NC(=O)[C@H](C)N(C)C(=O)C[C@@H](C(=O)N2CCCCC2)NC(=O)[C@H](CC(C)C)NC(=O)[C@H](Cc2ccccc2)NC(=O)[C@H](Cc2ccccc2)N(C)C(=O)[C@H](CC(C)C)NC(=O)[C@H]([C@@H](C)O)NC(=O)[C@H](CC(C)C)N(C)C1=O` [DP-332] ([NMeA]FI[NMeL]TL[NMeF]FLD-Piperidide; lactam N-10), the Papp at 18 hours, 50 µM in series [1] was 14 ×10⁻⁶ cm/s. Also, the microsomal CLint at 1 uM in series [2] was 284 µL/min/mg.

As for `CC[C@H](C)[C@@H]1NC(=O)[C@H](CC(C)C)N(C)C(=O)[C@H](Cc2ccccc2)NC(=O)CCN(C)C(=O)C[C@@H](C(=O)N2CCCCC2)NC(=O)[C@H](CC(C)C)NC(=O)[C@H](Cc2ccccc2)NC(=O)[C@H](Cc2ccccc2)N(C)C(=O)[C@H](CC(C)C)NC(=O)[C@H]([C@@H](C)O)NC1=O` [DP-334] ([NMeβAla]F[NMeL]ITL[NMeF]FLD-Piperidide; lactam N-10), in series [1], the Papp at 18 hours, 50 µM is 20 ×10⁻⁶ cm/s. Also, the microsomal CLint at 1 uM in series [2] was 80 µL/min/mg.

For the compound `CC(C)C[C@@H]1NC(=O)[C@H](Cc2ccccc2)N(C)C(=O)CNC(=O)[C@H](Cc2ccccc2)NC(=O)[C@H]([C@@H](C)O)NC(=O)[C@H](CC(C)C)N(C)C(=O)CCN(C)C(=O)C[C@@H](C(=O)N2CCCCC2)NC(=O)[C@H](COC(C)(C)C)NC(=O)[C@H](CC(C)C)N(C)C1=O` [DP-335] ([NMeβAla][NMeL]TFG[NMeF]L[NMeL]S(tBu)D-Piperidide; lactam N-10), the Papp at 18 hours, 50 µM in series [1] worked out at 22 ×10⁻⁶ cm/s. For the same compound, the microsomal CLint at 1 uM in series [2] turned out to be 109 µL/min/mg.

For the compound `CC(C)C[C@H]1C(=O)N(C)[C@@H](Cc2ccccc2)C(=O)N[C@@H]([C@@H](C)O)C(=O)N(C)[C@@H](C)C(=O)N(C)[C@@H](Cc2ccccc2)C(=O)N(C)[C@@H](C)C(=O)N[C@H](C(=O)N2CCCCC2)CC(=O)N(C)CCC(=O)N(C)[C@@H](C(C)C)C(=O)N[C@@H](C)C(=O)N1C` [DP-337] ([NMeβAla][NMeV]A[NMeL][NMeF]T[NMeA][NMeF][NMeA]D-Piperidide; lactam N-10), the Papp at 18 hours, 50 µM in series [1] was 17 ×10⁻⁶ cm/s. In series [2], the microsomal CLint at 1 uM is 74 µL/min/mg.

With `CC[C@H](C)[C@@H]1NC(=O)[C@H](Cc2ccccc2)NC(=O)[C@@H](C)N(C)C(=O)C[C@@H](C(=O)N2CCCCC2)NC(=O)[C@H](Cc2ccccc2)N(C)C(=O)[C@H](Cc2ccccc2)NC(=O)[C@H](CC(C)C)NC(=O)[C@H]([C@@H](C)O)NC(=O)[C@H](CC(C)C)NC(=O)[C@H](CC(C)C)N(C)C1=O` [DP-338] ([dNMeA]FI[NMeL]LTLF[NMeF]D-Piperidide; lactam N-10), the Papp at 18 hours, 50 µM in series [1] amounted to 4.9 ×10⁻⁶ cm/s. Besides, the microsomal CLint at 1 uM in series [2] is 146 µL/min/mg.

As for `CC[C@H](C)[C@@H]1NC(=O)[C@H](C(C)C)N(C)C(=O)[C@@H](C)N(C)C(=O)C[C@@H](C(=O)N2CCCCC2)NC(=O)[C@H](CC(C)C)NC(=O)[C@H](Cc2ccccc2)N(C)C(=O)[C@H](CC(C)C)N(C)C(=O)[C@H](Cc2ccccc2)NC(=O)[C@H]([C@@H](C)O)NC(=O)[C@H](CC(C)C)NC1=O` [DP-339] ([dNMeA][NMeV]ILTF[NMeL][NMeF]LD-Piperidide; lactam N-10), the Papp at 18 hours, 50 µM in series [1] came out at 18 ×10⁻⁶ cm/s. Further, in series [2], the microsomal CLint at 1 uM came to 213 µL/min/mg.

As to `CC(C)C[C@H]1C(=O)N[C@@H](COC(C)(C)C)C(=O)N(C)[C@@H](Cc2ccccc2)C(=O)N(C)[C@@H](C)C(=O)N[C@@H](Cc2ccccc2)C(=O)N(C)[C@@H](C(C)C)C(=O)N[C@H](C(=O)N2CCCCC2)CC(=O)N(C)[C@H](C)C(=O)N[C@@H]([C@@H](C)O)C(=O)NCC(=O)N1C` [DP-340] ([dNMeA]TG[NMeL]S(tBu)[NMeF][NMeA]F[NMeV]D-Piperidide; lactam N-10), the Papp at 18 hours, 50 µM in series [1] worked out at 31 ×10⁻⁶ cm/s. Besides, in series [2], the microsomal CLint at 1 uM turned out to be 86 µL/min/mg.

Regarding `CC(C)C[C@H]1C(=O)N[C@@H](C)C(=O)N(C)[C@@H](Cc2ccccc2)C(=O)N(C)[C@@H](C)C(=O)N(C)[C@@H](Cc2ccccc2)C(=O)N[C@@H]([C@@H](C)O)C(=O)N(C)[C@@H](C)C(=O)N[C@H](C(=O)N2CCCCC2)CC(=O)N(C)[C@H](C)C(=O)N(C)[C@@H](C)C(=O)N1C` [DP-341] ([dNMeA][NMeA][NMeL]A[NMeF][NMeA][NMeF]T[NMeA]D-Piperidide; lactam N-10), the Papp at 18 hours, 50 µM in series [1] came to 9.5 ×10⁻⁶ cm/s. For the same compound, the microsomal CLint at 1 uM in series [2] was 69 µL/min/mg.

As for `CC[C@H](C)[C@@H]1NC(=O)[C@H](CC(C)C)N(C)C(=O)CN(C)C(=O)[C@H]([C@@H](C)O)NC(=O)[C@H](Cc2ccccc2)N(C)C(=O)[C@H](CC(C)C)N(C)C(=O)[C@H](C)N(C)C(=O)C[C@@H](C(=O)N2CCCCC2)NC(=O)[C@H](CC(C)C)N(C)C1=O` [DP-342] ([NMeA][NMeL][NMeF]T[Sar][NMeL]I[NMeL]D-Piperidide; lactam N-9), in series [1], the Papp at 18 hours, 50 µM is 33 ×10⁻⁶ cm/s. In addition, the microsomal CLint at 1 uM in series [2] is 121 µL/min/mg.

Consider `CC(C)C[C@@H]1NC(=O)[C@@H](C)N(C)C(=O)C[C@@H](C(=O)N2CCCCC2)NC(=O)[C@H]([C@@H](C)O)NC(=O)[C@H](CC(C)C)N(C)C(=O)[C@H](CC(C)C)N(C)C(=O)[C@H](Cc2ccccc2)NC(=O)[C@H](CC(C)C)N(C)C(=O)[C@H](Cc2ccccc2)N(C)C1=O` [DP-343] ([dNMeA]L[NMeF][NMeL]F[NMeL][NMeL]TD-Piperidide; lactam N-9), for which, in series [1], the Papp at 18 hours, 50 µM is 36 ×10⁻⁶ cm/s. Moreover, in series [2], the microsomal CLint at 1 uM worked out at 427 µL/min/mg.

With `CC(C)C[C@H]1C(=O)N(C)[C@@H](C)C(=O)N(C)[C@@H](Cc2ccccc2)C(=O)N[C@@H]([C@@H](C)O)C(=O)N(C)[C@@H](C)C(=O)N(C)[C@@H](Cc2ccccc2)C(=O)N[C@H](C(=O)N(C)[C@@H](Cc2ccccc2)C(=O)N[C@@H](C)C(=O)N2CCCCC2)CC(=O)N(C)[C@@H](C)C(=O)N(C)[C@@H](C)C(=O)N(C)[C@@H](CC(C)C)C(=O)N[C@@H](C)C(=O)N1C` [DP-344] ([NMeA][NMeA][NMeL]A[NMeL][NMeA][NMeF]T[NMeA][NMeF]D[NMeF]A-Piperidide; lactam N-11), the Papp at 18 hours, 50 µM in series [1] was determined as 22 ×10⁻⁶ cm/s. Besides, the microsomal CLint at 1 uM in series [2] came to 30 µL/min/mg.
